In PMC8805583, “Discovery of Herbacetin as a Novel SGK1 Inhibitor to Alleviate Myocardial Hypertrophy” (Advanced Science, 2021):
Entries after “also recorded” stand apart in the source; their conditions may differ.

Legend:
control mice = assay: HBT in control mice (safety); format: in vivo
Protocol: Finally, we evaluate the safety and pharmacokinetics of HBT to ensure its druggability. […] Single dose administration of HBT at 40 mg kg^−1 was uptaken rapidly with a maximal plasma concentration of ≈6.73 ng mL^−1 after 10 min (Figure S14A, Supporting Information).
Figure S12. The mice were divided into two groups: Sham, Sham mice treated with HBT (Ctrl + HBT). (A) Schedule of animal treatments. (B) Heart weight/Body weight ratio (HW/BW) was detected in Ctrl and Ctrl + HBT group. (C-D) Echocardiography assessments were performed in the two groups. n=10-12. (E) HE in different groups of mice. n=4, Scale bar=50 μm. (F) The phosphorylation level of SGK1 in myocardial tissues in the two groups (Ctrl, Ctrl + HBT), n=4. Data were analyzed using unpaired two-tailed t test and data were expressed as means ± SD, ns: no significant.
(1 picture or pasted object on this page, not shown here)
Figure S13. Serum level of biochemical markers in mice of Ctrl and Ctrl + HBT groups. Data were analyzed using unpaired two-tailed t test and data were expressed as means ± SD, ns: no […]
Figure S14. Plasma concentration (A) and in vivo distribution (B) of HBT after single oral administration with dosage of 40mg/kg rat weight (n=5-6). The quantitation of HBT was performed by LC-MS/MS analysis. […]

[1] = target: T1, SGK1 protein with the D177A mutation (Homo sapiens, UniProt O00141, D177A); assay: MS-based kinase inhibitory assay with FLAG-tagged mutated SGK1 immunoprecipitated from HEK293T; format: biochemical; settings: normalized to WT SGK1
T1 construct: host or cells: HEK293T
T1 sequence (O00141 1-431 D177A): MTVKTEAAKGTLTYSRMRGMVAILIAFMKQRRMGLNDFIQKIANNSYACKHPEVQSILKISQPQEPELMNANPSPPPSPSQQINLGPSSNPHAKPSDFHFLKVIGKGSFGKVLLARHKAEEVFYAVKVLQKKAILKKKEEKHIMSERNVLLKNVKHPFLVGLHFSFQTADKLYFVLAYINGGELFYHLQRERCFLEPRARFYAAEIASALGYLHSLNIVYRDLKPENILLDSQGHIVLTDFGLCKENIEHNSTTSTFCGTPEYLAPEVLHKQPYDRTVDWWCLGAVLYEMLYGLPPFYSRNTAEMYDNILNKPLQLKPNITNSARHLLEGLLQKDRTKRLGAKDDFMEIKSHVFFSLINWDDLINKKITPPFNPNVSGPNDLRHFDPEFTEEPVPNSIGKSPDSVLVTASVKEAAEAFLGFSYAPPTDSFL
Excerpt: To further elaborate the interaction between SGK1 and HBT, the SGK1‐HBT complex was constructed by molecular docking based on the SGK1 crystal structures retrieved from the Protein Data Bank (PDB). […] To explore the impacts of these three residues on the SGK1‐HBT binding, plasmids carrying respective SGK1 mutations (D177A, N227A, and T239A) were designed and transfected in the human embryonic kidney cells (HEK293T). The FLAG‐tagged wild‐type or mutated SGK1 protein lysates were collected by immunoprecipitation and examined for enzymatic activity in the presence of HBT using MS‐based kinase inhibitory assay.
The initial crystal structures of SGK1 (PDB entry: 3HDN, 3HDM, and 2R5T) were obtained from the Protein Data Bank (PDB). The prepared inhibitors were then docked by Glide with the extra precision (XP) scoring mode to estimate the binding affinity for each protein–ligand complex. The detailed process of docking has been described previously.^[ [46] ^] HEK293T cells were transfected with SGK1 mutant plasmids. After 24 h, cells were lysed and immunoprecipitated with anti‐FLAG antibody and beads. Immune complexes were washed with kinase buffer and incubated in kinase buffer with substrate peptide for 1 h at 30 ℃ followed by LC/MS measurement as described above. KINOMEscan Profiling Service and KinaseProfiler Service Assay were provided by Eurofins Discovery.

SGK1-FoxO1 interaction = target: T2, SGK1-FoxO1 interaction (Rattus norvegicus, UniProt Q06226); assay: Co-immunoprecipitation of SGK1 and FoxO1 in cardiomyocytes; format: cell-based; settings: coimmunoprecipitation
T2 construct: endogenous in cells; host or cells: primary neonatal rat cardiomyocytes
T2 sequence (Q06226 1-430): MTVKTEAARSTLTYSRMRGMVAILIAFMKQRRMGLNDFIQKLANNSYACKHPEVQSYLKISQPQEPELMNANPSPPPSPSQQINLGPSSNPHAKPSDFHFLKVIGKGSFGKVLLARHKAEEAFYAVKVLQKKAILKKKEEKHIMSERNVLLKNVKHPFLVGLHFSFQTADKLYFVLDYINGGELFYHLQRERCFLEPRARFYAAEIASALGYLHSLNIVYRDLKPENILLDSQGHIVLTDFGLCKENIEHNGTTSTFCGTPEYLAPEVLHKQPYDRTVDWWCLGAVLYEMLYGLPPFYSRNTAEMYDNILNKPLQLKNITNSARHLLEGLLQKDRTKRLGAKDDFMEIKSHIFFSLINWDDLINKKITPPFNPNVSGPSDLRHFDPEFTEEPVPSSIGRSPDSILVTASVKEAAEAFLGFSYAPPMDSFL
Protocol: In the present study, we studied HBT's effect on protein binding between SGK1 and FoxO1 by coimmunoprecipitation (Figure 5E). […] Nevertheless, as previously reported,^[ [30] ^] […] Supportively, after transfection with the SGK1(S422D) plasmid, we consistently detected increased cytoplasmic signal of FoxO1 compared to nontransfected cells in which the majority of FoxO1 signal was distributed in the nucleus.
For the endogenous interaction assay, cardiomyocytes were treated with HBT or vehicle. After 24 h, cells were lysed with cell lysis buffer contained PMSF (Phenylmethylsulfonyl fluoride, a protease inhibitor). Protein extracts were harvested and immunoprecipitated with anti‐SGK1 or anti‐IgG antibody and protein A/G beads, and then measured by western blotting analysis.

## O=c1c(O)c(-c2ccc(O)cc2)oc2c(O)c(O)cc(O)c12 [HBT, herbacetin]
Control mice; control mice
  heart weight, cardiac function, cardiac histopathology: no adverse effect
Control mice; control versus HBT-treated mice
  serum level of regular biomarkers (ALT, AST, TCHO): no significant difference
[1]
  inhibition of D177A-mutated SGK1 by HBT: completely ablates; also recorded: almost completely lost its response
SGK1-FoxO1 interaction
  direct binding between SGK1 and FoxO1: did not detect significant impact
